Assay results from patent US20130060020A1, “Compounds useful for treating neurodegenerative disorders” (Satori Pharmaceuticals, Inc., priority 2011, published 2013).
Like-named read-outs stand apart in the source and are kept apart here.

How the values were obtained:
Aβ-42 = Aβ-42 MSD 3-plex ELISA, conditioned media of 2B7 cells; assay type: cell-based; details: Homo sapiens, 5 hours treatment
Protocol: (§1) Assays were conducted to determine the ability of a Compound of Formula I to modulate […], and Aβ-38.
(§2) Plates with capture antibodies were blocked for 1-2 hours at room temperature with 150 μL of the manufactures blocking reagent.
(§3) Cultured 2B7 cells in 96 well plate with 250 μL of media per well until confluent;
(§4) Prepared serial dilutions of compounds in DMSO at 100× the final desired concentration;
(§5) Washed wells with 2B7 cells 1× with 250 μL of media;
(§6) Diluted DMSO stocks 1:100 into media: • Added 250 μL of media containing compounds (1% DMSO) to wells with 2B7 cells for 5 hours at 37° C.
(§7) ELISA Sample Prep: • Diluted conditioned media: 1 part media with 1% DMSO and 1 part blocking buffer; • 150 μL of the 250 μL of conditioned media were used.
(§8) Prepared per manufacturer's protocol (see above). • Seven point standard curve samples were prepared that contained Aβ-42, Aβ-40, and Aβ-38. The highest concentration of Aβ-42 and Aβ-38 was 3,000 pg/mL and the highest concentration of Aβ-40 was 10,000 pg/mL. Subsequent serial dilutions were 1:3 and the final composition of each sample was 1 part blocking buffer and 1 part cell medium containing 1% DMSO.
(§9) Overnight Sample Incubation: • Blocked plates are washed 5× with MSD wash buffer with a plate washer; • […] and blocker G reagent in MSD blocking solution was added; • 25 μL of samples (1 part conditioned media containing 1% DMSO and 1 part MSD blocking buffer) were then added; • Plates were incubated overnight at 4 degrees C. or 2 hours at room temperature.
(§10) Final Wash and Readout: • Washed wells 5× with MSD wash buffer; • Added 150 μL 2×MSD read buffer; • Read with MSD imager.
(§11) Aβ peptide levels for each peptide were calculated from the standard curve using the MSD software provided with the MSD 2400 Imager. Percent vehicle values for each compound dosage were then calculated and fit to a 4 parameter curve generating IC50 values.
(§12) Conditioned media from 2B7 cells (Mayo) was collected after 5 hours of treatment and diluted with 1 volume of Meso Scale Discovery (MSD, Gaithersburg Md.) blocking buffer (1% BSA in MSD wash buffer). For total Aβ measurements, standard-bind, multi-array single spot 96 well MSD ELISA plates were coated with unlabeled 4G8 capture antibody (Covance, Princeton, N.J.) overnight at 4° C. and then blocked with 5% BSA in MSD wash buffer for 1 hour at room temperature with orbital shaking Diluted 2B7 conditioned media were added to the blocked in-house total Aβ MSD plates with SULFO-TAG 6E10 antibody (MSD). For Aβ38, 40 and 42 measurements, diluted 2B7 conditioned media were added to blocked human (6E10) Aβ 3-Plex plates (MSD). Total Aβ and Aβ 3-Plex plates were incubated for 2 hours at room temperature with orbital shaking followed by washing and reading according to the manufacturer's instructions (SECTOR® Imager 2400, MSD). Aβ concentrations were converted to percent vehicle values and used to construct dose response curves which were fitted to […] using GraphPad Prism version 5.00 for Windows, GraphPad Software, San Diego Calif. USA.

Aβ-38 = Aβ-38 MSD 3-plex ELISA, conditioned media of 2B7 cells; assay type: cell-based; details: Homo sapiens, 5 hours treatment
Protocol: as §1, §2, §3, §4, §5, §6, §7, §8, §9, §10, §11, §12

Aβ 42 = assay: % 42 lowering and 40/42 selectivity after dosing in mg/kg (Table 5); assay type: in vivo
Notch processing (NICD) = assay: Notch assay: NICD appearance in SUP-T1 cells (western blot); assay type: cell-based; details: 18 hours; for Notch % inhib: Notch inhib conc class D (1001-5000 nM); for inhibition at 5 µM: Notch inhib conc class E (>5000 nM)
Protocol: The methods for this assay are broken up into two parts. 1) Growing, dosing and lysing cells 2) Measuring Notch processing (NICD appearance) and data manipulation. Cell viability is also described (CTG). SUP-T1 cells were cultured in T75 flasks in RPMI media (Mediatech 10-041-CV) supplemented with 10% FBS and penicillin/streptomycin at 37° C. in a 5% CO2 atmosphere. One hour prior to drug treatment six well plates were seeded with 1.5 mL of media with cells at a density of 1.0×10^6 cells/mL. The DMSO serial dilutions were diluted 100 fold directly into the media with the cells and incubated for 18 hours at 37° C. After treatment 100 μL of treated cells were assayed for viability with the Promega Cell Titer Glo assay system. […] Lysates were spun at 5,000 RPM for 5 minutes and supernatants were collected and analyzed for NICD levels. […] To account for loading discrepancies each NICD band was normalized to the alpha tubulin band in that well. These values were then normalized to vehicle levels and used to plot a dose response curve. IC50 values were obtained from the dose response curves using a four parameter fit method available within Prism's GraphPad graphing suite. Luminescent data from Promega's Cell Titre Glo assay system were normalized to vehicle controls and plotted with NICD levels.

Aβ-40 = Aβ-40 MSD 3-plex ELISA, conditioned media of 2B7 cells; assay type: cell-based; details: Homo sapiens, 5 hours treatment
Protocol: as §1, §2, §3, §4, §5, §6, §7, §8, §9, §10, §11, §12

[1] = inflection of dose response curve, read-out: Aβ 42 DR IC50 Inflection
[2] = inflection of dose response curve, read-out: Aβ 38 DR IC50 Inflection
[3] = inflection of dose response curve, read-out: Aβ 40 DR IC50 Inflection

SMILES | IC50 (Aβ-42; [1]) | IC50 (Aβ-42; read-out: Aβ 42 IC50) | IC50 (Aβ-38; read-out: Aβ 38 IC50) | Notch % inhib (Notch processing (NICD)) | IC50 (Aβ-40; read-out: Aβ 40 IC50) | also measured
CCO[C@@H]([C@H]1C[C@@H](C)[C@H]2[C@H](O1)[C@H](O)[C@@]1(C)[C@@H]3CC[C@H]4C(C)(C)[C@@H](O[C@H]5CN(C6CCN(CCOC)CC6)CCO5)CC[C@@]45C[C@@]35CC[C@]21C)C(C)(C)O [Compound I-28] | 100 to 500 nM | 100 to 500 nM | 501 to 1000 nM |  |  | 40/42 selective 10 hr (Aβ 42; 100 mg/kg): F^a (10-15 fold selectivity); %42 lowering 10 hr (Aβ 42; 100 mg/kg): A^a (% 42 lowering of under 15%)
CCO[C@@H]([C@H]1C[C@@H](C)[C@H]2[C@H](O1)[C@H](O)[C@@]1(C)[C@@H]3CC[C@H]4C(C)(C)[C@@H](O[C@H]5CN([C@@H](C)CN6CCC6)CCO5)CC[C@@]45C[C@@]35CC[C@]21C)C(C)(C)O [Compound I-76] | 1000 to 5000 nM |  |  | B (B is a range from 26-50%) |  | 
CCO[C@@H]([C@H]1C[C@@H](C)[C@H]2[C@H](O1)[C@H](O)[C@@]1(C)[C@@H]3CC[C@H]4C(C)(C)[C@@H](O[C@H]5CN(C6CN(CC(=O)N(C)C)C6)CCO5)CC[C@@]45C[C@@]35CC[C@]21C)C(C)(C)O [Compound I-7] | 100 to 500 nM | 100 to 500 nM | 100 to 500 nM | A (A is range from 0-25%) | 1 to 5 µM | 
CCO[C@@H]([C@H]1C[C@@H](C)[C@H]2[C@H](O1)[C@H](O)[C@@]1(C)[C@@H]3CC[C@H]4C(C)(C)[C@@H](O[C@H]5CN(C6CN(C)C6)CCO5)CC[C@@]45C[C@@]35CC[C@]21C)C(C)(C)O [Compound I-3] |  |  |  |  |  | inhibition at 5 µM (Notch processing (NICD); Homo sapiens): 26 to 50%
CCO[C@@H]([C@H]1C[C@@H](C)[C@H]2[C@H](O1)[C@H](O)[C@@]1(C)[C@@H]3CC[C@H]4C(C)(C)[C@@H](O[C@H]5CN(C6CNC6)CCO5)CC[C@@]45C[C@@]35CC[C@]21C)C(C)(C)O [Compound I-2] | < 100 nM | 100 to 500 nM | 100 to 500 nM | A (A is range from 0-25%) | 1 to 5 µM | IC50 (Aβ-38; [2]): 100 to 500 nM; IC50 (Aβ-40; [3]): > 5 µM
CCO[C@@H]([C@H]1C[C@@H](C)[C@H]2[C@H](O1)[C@H](O)[C@@]1(C)[C@@H]3CC[C@H]4C(C)(C)[C@@H](O[C@H]5CN([C@H](C)CN6CCC6)CCO5)CC[C@@]45C[C@@]35CC[C@]21C)C(C)(C)O [Compound I-77] |  |  |  | A (A is range from 0-25%) |  | 
CCO[C@@H]([C@H]1C[C@@H](C)[C@H]2[C@H](O1)[C@H](O)[C@@]1(C)[C@@H]3CC[C@H]4C(C)(C)[C@@H](O[C@H]5CN(C6CCN(C(C)C)CC6)CCO5)CC[C@@]45C[C@@]35CC[C@]21C)C(C)(C)O [Compound I-30] | < 100 nM | < 100 nM | 100 to 500 nM |  | 1 to 5 µM | 40/42 selective 10 hr (Aβ 42; 100 mg/kg): G^a (16-20 fold selectivity); %42 lowering 10 hr (Aβ 42; 100 mg/kg): A^a (% 42 lowering of under 15%)
CCO[C@@H]([C@H]1C[C@@H](C)[C@H]2[C@H](O1)[C@H](O)[C@@]1(C)[C@@H]3CC[C@H]4C(C)(C)[C@@H](O[C@H]5CN(C6CN(C7CCC7)C6)CCO5)CC[C@@]45C[C@@]35CC[C@]21C)C(C)(C)O [Compound I-13] |  |  |  |  |  | %42 lowering 10 hr (Aβ 42; 150 mg/kg): D (% 42 lowering of 26-30%); %42 lowering 24 hr (Aβ 42; 150 mg/kg): D (% 42 lowering of 26-30%)
CCO[C@@H]([C@H]1C[C@@H](C)[C@H]2[C@H](O1)[C@H](O)[C@@]1(C)[C@@H]3CC[C@H]4C(C)(C)[C@@H](O[C@H]5CN(CC6CN(C)C6)CCO5)CC[C@@]45C[C@@]35CC[C@]21C)C(C)(C)O [Compound I-5] |  |  |  |  |  | %42 lowering 10 hr (Aβ 42; 150 mg/kg): A (% 42 lowering of under 15%)
CCO[C@@H]([C@H]1C[C@@H](C)[C@H]2[C@H](O1)[C@H](O)[C@@]1(C)[C@@H]3CC[C@H]4C(C)(C)[C@@H](O[C@H]5CN(C6CCN(C7COC7)CC6)CCO5)CC[C@@]45C[C@@]35CC[C@]21C)C(C)(C)O [Compound I-35] | 100 to 500 nM | 100 to 500 nM | 501 to 1000 nM |  | 1 to 5 µM | IC50 (Aβ-40; [3]): 1 to 5 µM; IC50 (Notch processing (NICD); Homo sapiens, NICD levels): > 5 µM
CCO[C@@H]([C@H]1C[C@@H](C)[C@H]2[C@H](O1)[C@H](O)[C@@]1(C)[C@@H]3CC[C@H]4C(C)(C)[C@@H](O[C@H]5CN(CCN6CCOCC6)CCO5)CC[C@@]45C[C@@]35CC[C@]21C)C(C)(C)O [Compound I-58] | 100 to 500 nM | 100 to 500 nM | 501 to 1000 nM |  | > 5 µM | inhibition at 5 µM (Notch processing (NICD); Homo sapiens): 26 to 50%
CCO[C@@H]([C@H]1C[C@@H](C)[C@H]2[C@H](O1)[C@H](O)[C@@]1(C)[C@@H]3CC[C@H]4C(C)(C)[C@@H](O[C@H]5CN(CCNCCOC)CCO5)CC[C@@]45C[C@@]35CC[C@]21C)C(C)(C)O [Compound I-60] | 100 to 500 nM | 100 to 500 nM | 100 to 500 nM | A (A is range from 0-25%) | 1 to 5 µM | IC50 (Aβ-38; [2]): 100 to 500 nM; IC50 (Aβ-40; [3]): 1 to 5 µM
CCO[C@@H]([C@H]1C[C@@H](C)[C@H]2[C@H](O1)[C@H](O)[C@@]1(C)[C@@H]3CC[C@H]4C(C)(C)[C@@H](O[C@H]5CN(C6CN(CC(=O)N7CCC7)C6)CCO5)CC[C@@]45C[C@@]35CC[C@]21C)C(C)(C)O [Compound I-8] | 100 to 500 nM | 100 to 500 nM | 1000 to 5000 nM | A (A is range from 0-25%) | 1 to 5 µM | 
CCO[C@@H]([C@H]1C[C@@H](C)[C@H]2[C@H](O1)[C@H](O)[C@@]1(C)[C@@H]3CC[C@H]4C(C)(C)[C@@H](O[C@H]5CN(C6CN(C(C)C)C6)CCO5)CC[C@@]45C[C@@]35CC[C@]21C)C(C)(C)O [Compound I-6] |  |  |  |  |  | %42 lowering 10 hr (Aβ 42; 150 mg/kg): C (% 42 lowering of 21-25%); %42 lowering 24 hr (Aβ 42; 100 mg/kg): E^a (% 42 lowering of greater than 31%)
